In ChEMBL document CHEMBL5223172, “Development of fluorophore labeled or biotinylated anticancer small molecule NSC243928” (Bioorg Med Chem, 2023):
The source made the active and inactive calls. The calls are words filed in the database; no cut-off is given here.

Key:
[1] = target: T1, Lymphocyte antigen 6K (Homo sapiens) (UniProt Q17RY6); assay: Binding affinity to human wild type LY6K at 1.25 to 5 uM measured upto 250 sec by SPR assay; details: dose 1.25-5 µM
T1 sequence (whole entry): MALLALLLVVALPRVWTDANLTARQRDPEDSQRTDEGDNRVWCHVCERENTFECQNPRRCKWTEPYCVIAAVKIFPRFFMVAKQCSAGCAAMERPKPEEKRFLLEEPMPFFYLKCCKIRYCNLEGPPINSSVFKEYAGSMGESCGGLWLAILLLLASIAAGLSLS

[2] = Drug uptake in human Serum starved Hs-578T cells assessed as drug localization in membrane of the cell at 2 uM measured after 2 hrs by DAPI staining based confocal microscopy; type: ADME
[3] = Drug uptake in human Serum starved Hs-578T cells assessed as drug localization in perinuclear region of cell at 2 uM measured after 2 hrs by DAPI staining based confocal microscopy; type: ADME
[4] = system: Hs-578T; assay: Antiproliferative activity against human Hs-578T cells transfected with LY6K-shRNA assessed as reduction in cell viability at 5 to 10 uM measured after 48 hrs by Cell titer blue assay; type: functional, cell-based; details: dose 5-10 µM
[5] = target: T1, Lymphocyte antigen 6K (Homo sapiens); assay: Inhibition of LY6K in human Hs-578T cells assessed as reduction in cell viability measured after 48 hrs by Cell titer blue assay; type: cell-based; details: dose 5-10 µM
[6] = Drug uptake in human Serum starved Hs-578T cells assessed as drug localization in cytoplasm of cell at 2 uM measured after 2 hrs by DAPI staining based confocal microscopy; type: ADME
[7] = target: T2, Lymphocyte antigen 6K (Homo sapiens, UniProt Q17RY6); assay: Binding affinity to human wild type LY6K assessed as dissociation constant measured upto 250 sec by SPR assay
T2 sequence (Q17RY6 whole entry): T1 sequence (whole entry)

| Activity [1] | Drug uptake [2] | Drug uptake [3] | Drug uptake [6] | Kd [7] [nM] | SMILES | Activity [4] | Activity [5] |
| --- | --- | --- | --- | --- | --- | --- | --- |
| Active | – | – | – | – | CCS(=O)(=O)Nc1ccc(Nc2c3ccccc3nc3cc(C(=O)OCc4ccccc4)ccc23)c(OC)c1 | – | – |
| Dose-Dependent Effect | – | – | – | 4700 | CCS(=O)(=O)Nc1ccc(Nc2c3ccccc3nc3ccccc23)c(OC)c1 | inactive | Dose-Dependent Effect |

The next lines start with the compound.

| SMILES | Activity [1] | Drug uptake [2] | Drug uptake [3] | Drug uptake [6] | Kd [7] [nM] | Activity [4] | Activity [5] |
| --- | --- | --- | --- | --- | --- | --- | --- |
| CCS(=O)(=O)Nc1ccc(Nc2c3ccccc3nc3cc(C(=O)NCCCCCCNc4ccc([N+](=O)[O-])c5nonc45)ccc23)c(OC)c1 | Active | Active | Active | Active | – | inactive | Dose-Dependent Effect |
| CCS(=O)(=O)Nc1ccc(Nc2c3ccccc3nc3cc([N+](=O)[O-])ccc23)c(OC)c1 | Dose-Dependent Effect | – | – | – | – | – | – |
| CCS(=O)(=O)Nc1ccc(Nc2c3ccccc3nc3cc(NC(=O)CCCC[C@@H]4SC[C@@H]5NC(=O)N[C@@H]54)ccc23)c(OC)c1 | Active | – | – | – | – | – | – |
| CCS(=O)(=O)Nc1ccc(Nc2c3ccccc3nc3cc(C(=O)NCCOCCOCCOCCOCCOCCOCCOCCNC(=O)CCCC[C@@H]4SC[C@@H]5NC(=O)N[C@@H]54)ccc23)c(OC)c1 | – | – | – | – | 300 | inactive | Dose-Dependent Effect |
